Converted amounts (≈) assume the structure as drawn. Where a name gives a salt, the structure may show the parent alone. Read-outs that look alike come from different tables or passages of the source.
System: mouse L1210 leukemia cells
Assay: Formation of L1210 leukemia cell colonies in soft agar (cytostatic activity)
Format: cell-based
Details: colonies > 60 μm, % of untreated control; for IC50: Mus musculus
Protocol: The cytostatic activity of the compounds according to the invention have been tested using mouse L1210 leukemia cells. Use was made for this by the formation of L1210 leukemia cell colonies in agar plates. This method is used to detect the effect of the test substances on the growth behavior of the cells over 1 hour or over several generations. In this connection, with a cell cycle time of 10-12 hours, about 14 consecutive generations are observed in a 7-day duration of the test. In this test, the substances having cytostatic activity according to the invention bring about a reduction, compared with an untreated control sample, in the number of colonies which is to be observed.
Procedure for Determining the Formation of L1210 Leukemia Cell Colonies in Soft Agar
500 leukemia cells per plate were incubated with various concentrations of the test substance at 37° C. for 1 hour. These cells were then washed twice with McCoy 5A medium, 0.3% agar was added, and finally the mixture was poured into Petri dishes. Controls were incubated only with fresh medium. In place of the incubation for one hour, in some cases various concentrations and test substances were mixed with the upper agar layer in order in this way to achieve continuous exposure of the cells throughout the incubation time. After the agar had solidified, the plates were incubated in an incubator at 37° C. for 7 days (5% by volume CO2, 95% relative atmospheric humidity). Thereafter the number of colonies with a diameter of more than 60 μm which had formed was counted. The results have been stated as the number of colonies in treated agar plates as a percentage of the untreated control. The dose-effect graph obtained in this way was used to determine the IC50 as a measure of the activity of the substance. The results for the compounds described here are compiled in Table 1 which follows, comparing with adriamycin.

[1] = L1210, 168 h, read-out: Continuous incubation IC50, continuous exposure, test substance mixed with upper agar layer, 7 days, 37° C.
[2] = L1210, read-out: 1 h incubation IC50, 1 hour incubation with test substance at 37° C., then washed, 7 days in agar
[3] = L1210, 168 h, continuous exposure, test substance mixed with upper agar layer, 7 days, 37° C., read-out: Continuous incubation IC50
[4] = L1210, 1 hour incubation with test substance at 37° C., then washed, 7 days in agar, read-out: 1 h incubation IC50

IC50 [3] [µg/mL] | IC50 [4] [µg/mL] | SMILES | IC50 [1] [µg/mL] | IC50 [2] [µg/mL] | 1 h incubation IC50 (1 hour incubation with test substance at 37° C., then washed, 7 days in agar, hydrochloride) [µg/mL]
0.11 (≈ 0.202 µM) | 0.13 (≈ 0.238 µM) | CC[C@@]1(O)C[C@H](O[C@H]2C[C@H](NC)[C@H](O)[C@H](C)O2)c2c(O)c3c(c(O)c2[C@H]1O)C(=O)c1c(O)ccc(O)c1C3=O [compound 3, 7-O-(3'-N-Methyl-α-L-daunosaminyl)-β-isorhodomycinone] |  |  | 
0.28 (≈ 0.477 µM) | > 1 | CC[C@@]1(O)C[C@H](O[C@H]2C[C@H](NC)[C@H](O)[C@H](C)O2)c2c(O)c3c(c(O)c2[C@H]1C(=O)OC)C(=O)c1c(O)ccc(O)c1C3=O [compound 5, 7-O-(3'-N-Methyl-α-L-daunosaminyl)-ε-isorhodomycinone] |  |  | 
0.028 (≈ 0.0452 µM) | 0.32 (≈ 0.516 µM) | CC[C@@]1(O)C[C@H](O[C@H]2C[C@H](N(C)Cc3ccccc3)[C@H](O)[C@H](C)O2)c2c(O)c3c(c(O)c2[C@H]1O)C(=O)c1cccc(O)c1C3=O [compound 9, 7-O-(3'-N-Benzyl-3'-N-methyl-α-L-daunosaminyl)-β-rhodomycinone] |  |  | 
0.026 (≈ 0.0455 µM) | 0.1 (≈ 0.175 µM) | CCCN(C)[C@H]1C[C@H](O[C@H]2C[C@](O)(CC)[C@H](O)c3c(O)c4c(c(O)c32)C(=O)c2c(O)cccc2C4=O)O[C@@H](C)[C@H]1O [compound 12, 7-O-(3'-N-Methyl-3'-N-propyl-α-L-daunosaminyl)-β-rhodomycinone] |  |  | 
0.5 (≈ 0.794 µM) | > 1 | CC[C@@]1(O)C[C@H](O[C@H]2C[C@H](N(C)C(C)=O)[C@H](O)[C@H](C)O2)c2c(O)c3c(c(O)c2[C@H]1C(=O)OC)C(=O)c1c(O)ccc(O)c1C3=O [compound 14, 7-O-(3'-N-Acetyl-3'-N-methyl-α-L-daunosaminyl)-ε-isorhodomycinone] |  |  | 
> 1 | > 1 | CC[C@@]1(O)C[C@H](O[C@H]2C[C@H](NC)[C@H](O)[C@H](C)O2)c2c(O)c3c(c(O)c2[C@H]1O[C@H]1C[C@H](NC)[C@H](O)[C@H](C)O1)C(=O)c1cccc(O)c1C3=O [compound 15, 7,10-O-bis-(3'-N-Methyl-α-L-daunosaminyl)-β-rhodomycinone] |  |  | 
0.075 (≈ 0.125 µM) | 0.48 (≈ 0.8 µM) | CCCCCN(C)[C@H]1C[C@H](O[C@H]2C[C@](O)(CC)[C@H](O)c3c(O)c4c(c(O)c32)C(=O)c2c(O)cccc2C4=O)O[C@@H](C)[C@H]1O [compound 18, 7-O-(3'-N-Methyl-3'-N-pentyl-α-L-daunosaminyl)-β-rhodomycinone] |  |  | 
0.38 (≈ 0.605 µM) | 1.9 (≈ 3.03 µM) | CCCCCCCN(C)[C@H]1C[C@H](O[C@H]2C[C@](O)(CC)[C@H](O)c3c(O)c4c(c(O)c32)C(=O)c2c(O)cccc2C4=O)O[C@@H](C)[C@H]1O [compound 20, 7-O-(3'-N-Heptyl-3'-N-methyl-α-L-daunosaminyl)-β-rhodomycinone] |  |  | 
0.46 (≈ 0.717 µM) | 2.8 (≈ 4.36 µM) | CCCCCCCCN(C)[C@H]1C[C@H](O[C@H]2C[C@](O)(CC)[C@H](O)c3c(O)c4c(c(O)c32)C(=O)c2c(O)cccc2C4=O)O[C@@H](C)[C@H]1O [compound 21, 7-O-(3'-N-Octyl-3'-N-methyl-α-L-daunosaminyl)-β-rhodomycinone] |  |  | 
0.026 (≈ 0.0397 µM) | 0.95 (≈ 1.45 µM) | CC[C@@]1(O)C[C@H](O[C@H]2C[C@H](N(C)Cc3ccc(Cl)cc3)[C@H](O)[C@H](C)O2)c2c(O)c3c(c(O)c2[C@H]1O)C(=O)c1cccc(O)c1C3=O [compound 22, 7-O-(3'-N-(4-Chlorobenzyl)-3'-N-methyl-α-L-daunosaminyl)-β-rhodomycinone] |  |  | 
0.08 (≈ 0.115 µM) | > 1 | CC[C@@]1(O)C[C@H](O[C@H]2C[C@H](N(C)Cc3ccc(Br)cc3)[C@H](O)[C@H](C)O2)c2c(O)c3c(c(O)c2[C@H]1O)C(=O)c1cccc(O)c1C3=O [compound 23, 7-O-(3'-N-(4-Bromobenzyl)-3'-N-methyl-α-L-daunosaminyl)-β-rhodomycinone] |  |  | 
0.0065 (≈ 0.00762 µM) | 0.12 (≈ 0.141 µM) | CC[C@@]1(O)C[C@H](O[C@H]2C[C@H](N(C)Cc3ccccc3)[C@H](O)[C@H](C)O2)c2c(O)c3c(c(O)c2[C@H]1O[C@H]1C[C@H](N(C)Cc2ccccc2)[C@H](O)[C@H](C)O1)C(=O)c1cccc(O)c1C3=O [compound 28, 7,10-O-bis-(3'-N-Benzyl-3'-N-methyl-α-L-daunosaminyl)-β-rhodomycinone] |  |  | 
0.1 (≈ 0.123 µM) | 0.6 (≈ 0.738 µM) | CCCCCN(C)[C@H]1C[C@H](O[C@H]2C[C@](O)(CC)[C@H](O[C@H]3C[C@H](N(C)CCCCC)[C@H](O)[C@H](C)O3)c3c(O)c4c(c(O)c32)C(=O)c2c(O)cccc2C4=O)O[C@@H](C)[C@H]1O [compound 29, 7,10-O-bis-(3'-N-Methyl-3'-N-pentyl-α-L-daunosaminyl)-β-rhodomycinone] |  |  | 
0.5 (≈ 0.92 µM) | 1.3 (≈ 2.39 µM) | CN[C@H]1C[C@H](O[C@H]2C[C@](O)(C(C)O)Cc3c(O)c4c(c(O)c32)C(=O)c2c(OC)cccc2C4=O)O[C@@H](C)[C@H]1O (stereo partly shown) [compound 32, 3'-N-Methyl-13-dihydrodaunorubicin] |  |  | 

Second part, the compound before the results:

SMILES | IC50 [3] [µg/mL] | IC50 [4] [µg/mL] | IC50 [1] [µg/mL] | IC50 [2] [µg/mL] | 1 h incubation IC50 (1 hour incubation with test substance at 37° C., then washed, 7 days in agar, hydrochloride) [µg/mL]
CC[C@@]1(O)C[C@H](O[C@H]2C[C@H](NC)[C@H](O)[C@H](C)O2)c2c(O)c3c(c(O)c2[C@H]1O)C(=O)c1cccc(O)c1C3=O [compound 1, 7-O-(3'-N-Methyl-α-L-daunosaminyl)-β-rhodomycinone] |  |  | 0.02 (≈ 0.0378 µM) | 0.038 (≈ 0.0718 µM) | 
CC[C@@]1(O)C[C@H](O[C@H]2C[C@H](NC)[C@H](O)[C@H](C)O2)c2c(O)c3c(c(O)c2[C@H]1O)C(=O)c1cccc(O)c1C3=O [compound 2, 7-O-(3'-N-Methyl-α-L-daunosaminyl)-β-rhodomycinone hydrochloride] |  |  |  |  | 0.026
CC[C@@]1(O)C[C@H](O[C@H]2C[C@H](N(C)C=O)[C@H](O)[C@H](C)O2)c2c(O)c3c(c(O)c2[C@H]1O)C(=O)c1cccc(O)c1C3=O [compound 6, 7-O-(3'-N-Formyl-3'-N-methyl-α-L-daunosaminyl)-β-rhodomycinone] |  |  | 0.044 (≈ 0.0789 µM) | 0.15 (≈ 0.269 µM) | 
CC[C@@]1(O)C[C@H](O[C@H]2C[C@H](N(C)CC#N)[C@H](O)[C@H](C)O2)c2c(O)c3c(c(O)c2[C@H]1O)C(=O)c1cccc(O)c1C3=O [compound 7, 7-O-(3'-N-Cyanomethyl-3'-N-methyl-α-L-daunosaminyl)-β-rhodomycinone] |  |  | 0.013 (≈ 0.0229 µM) | 0.021 (≈ 0.0369 µM) | 
CC[C@@]1(O)C[C@H](O[C@H]2C[C@H](N(C)CC#N)[C@H](O)[C@H](C)O2)c2c(O)c3c(c(O)c2[C@H]1O)C(=O)c1c(O)ccc(O)c1C3=O [compound 8, 7-O-(3'-N-Cyanomethyl-3'-N-methyl-α-L-daunosaminyl)-β-isorhodomycinone] |  |  | 0.042 (≈ 0.0718 µM) | 0.2 (≈ 0.342 µM) | 
CCN(C)[C@H]1C[C@H](O[C@H]2C[C@](O)(CC)[C@H](O)c3c(O)c4c(c(O)c32)C(=O)c2c(O)cccc2C4=O)O[C@@H](C)[C@H]1O [compound 11] | 0.007 (≈ 0.0126 µM) | 0.08 (≈ 0.143 µM) |  |  | 
CCCCN(C)[C@H]1C[C@H](O[C@H]2C[C@](O)(CC)[C@H](O)c3c(O)c4c(c(O)c32)C(=O)c2c(O)cccc2C4=O)O[C@@H](C)[C@H]1O [compound 13, 7-O-(3'-N-Butyl-3'-N-methyl-α-L-daunosaminyl)-β-rhodomycinone] | 0.018 (≈ 0.0307 µM) | 0.125 (≈ 0.213 µM) |  |  | 
CCCCCCN(C)[C@H]1C[C@H](O[C@H]2C[C@](O)(CC)[C@H](O)c3c(O)c4c(c(O)c32)C(=O)c2c(O)cccc2C4=O)O[C@@H](C)[C@H]1O [compound 19, 7-O-(3'-N-Hexyl-3'-N-methyl-α-L-daunosaminyl)-β-rhodomycinone] | 0.13 (≈ 0.212 µM) | 1.2 (≈ 1.96 µM) |  |  | 
CC[C@@]1(O)C[C@H](O[C@H]2C[C@H](N(C)Cc3ccc([N+](=O)[O-])cc3)[C@H](O)[C@H](C)O2)c2c(O)c3c(c(O)c2[C@H]1O)C(=O)c1cccc(O)c1C3=O [compound 24, 7-O-(3'-N-(4-Nitrobenzyl)-3'-N-methyl-α-L-daunosaminyl)-β-rhodomycinone] |  |  | 0.16 (≈ 0.241 µM) | 2.5 (≈ 3.76 µM) | 
CC[C@@]1(O)C[C@H](O[C@H]2C[C@H](N(C)Cc3ccc(C#N)cc3)[C@H](O)[C@H](C)O2)c2c(O)c3c(c(O)c2[C@H]1O)C(=O)c1cccc(O)c1C3=O [compound 25, 7-O-(3'-N-(4-Cyanobenzyl)-3'-N-methyl-α-L-daunosaminyl)-β-rhodomycinone] |  |  | 0.11 (≈ 0.171 µM) | > 1 | 
CCCCCN(C)[C@H]1C[C@H](O[C@H]2C[C@](O)(CC)[C@H](O)c3c(O)c4c(c(O)c32)C(=O)c2c(O)ccc(O)c2C4=O)O[C@@H](C)[C@H]1O [compound 27, 7-O-(3'-N-Methyl-3'-N-pentyl-α-L-daunosaminyl)-β-isorhodomycinone] | 0.06 (≈ 0.0975 µM) | > 1 |  |  | 
